Calls of active or inactive are those of the source. The rule behind the calls is not given here.
Tested on: HEK-293T
Test: Cytotoxicity against AP1 expressing HEK293T cells coexpressing beta-lactamase pre-incubated 1 hr before TPA addition measured 18 hrs post TPA challenge by fluorimetric assay
Assay type: functional, cell-based
Settings: Homo sapiens

Row | SMILES | Activity
1 | CC(C)[C@H]1C(=O)N2CCC[C@H]2C(=O)N(C)[C@H](Cc2ccccc2)C2=N[C@@H](CS2)C(=O)N[C@H](C)C2=N[C@@H](CS2)C(=O)N(C)[C@H](Cc2ccccc2)C(=O)N[C@H](C(C)C)C(=O)N[C@H](C)[C@@H](C)C(=O)O[C@@H](Cc2ccccc2)C(=O)N1C | Active
2 | CC[C@H]1NC(=O)[C@@H]2CSC(=N2)[C@@H](Cc2ccccc2)N(C)C(=O)[C@@H]2CCCN2C(=O)[C@H](C(C)C)N(C)C(=O)[C@H](Cc2ccccc2)OC(=O)[C@H](C)[C@@H](C)NC(=O)[C@@H](C(C)C)NC(=O)[C@@H](Cc2ccccc2)N(C)C(=O)[C@@H]2CSC1=N2 | Active
